Data set [1] deals with patients with PAH (WHO Group 1). In words: ARIES-2 12-week placebo-controlled study. Type of data set: in vivo, human. As to the method: Two 12-week, randomized, double-blind, placebo-controlled, multicenter studies were conducted in 393 patients with PAH (WHO Group 1). The two studies were identical in design except for the doses of ambrisentan and the geographic region of the investigational sites. ARIES-1 (Ambrisentan in Pulmonary Arterial Hypertension, Randomized, Double-Blind, Placebo-Controlled, Multicenter, Efficacy Studies) compared once-daily doses of 5 mg and 10 mg ambrisentan to placebo, […] In both studies, ambrisentan or placebo was added to current therapy, which could have included a combination of anticoagulants, diuretics, calcium channel blockers, or digoxin, but not epoprostenol, treprostinil, iloprost, bosentan, or sildenafil. The primary study endpoint was 6-minute walk distance. In addition, clinical worsening, WHO functional class, dyspnea, and SF-36® Health Survey were assessed.
Patients had idiopathic or heritable PAH (64%) or PAH associated with connective tissue diseases (32%), HIV infection (3%), or anorexigen use (1%). There were no patients with PAH associated with congenital heart disease.
Patients had WHO functional class I (2%), II (38%), III (55%), or IV (5%) symptoms at baseline. The mean age of patients was 50 years, 79% of patients were female, and 77% were Caucasian.
Clinical Worsening: Time to clinical worsening of PAH was defined as the first occurrence of death, lung transplantation, hospitalization for PAH, atrial septostomy, study withdrawal due to the addition of other PAH therapeutic agents or study withdrawal due to early escape. Early escape was defined as meeting two or more of the following criteria: a 20% decrease in the 6-minute walk distance; an increase in WHO functional class; worsening right ventricular failure; rapidly progressing cardiogenic, hepatic, or renal failure; or refractory systolic hypotension.

Data set [2] can be described thus: Post-marketing spontaneous and clinical serious adverse event hepatic data (LEAP), 2 years after first approval. Type of data set: in vivo, human. From the text: During the 2-year period since ambrisentan was first approved, the vast majority of patient exposure had been in the U.S. through Letairis Education and Access Program (LEAP). As of 14 Jun. 2009, a total of 6,622 patients had enrolled in LEAP and received at least one shipment of ambrisentan. Approximately half of the patients for whom duration of therapy was available received ambrisentan for a period of at least 6 months, resulting in a total of 3,847 patient-years of exposure. Exposure duration is depicted in FIG. 3 showing LEAP patients by exposure duration.
A total of 120 post-marketing spontaneous reports were identified for the 2-year period (15 Jun. 2007 through 14 Jun. 2009) where 119 reports were received via LEAP in the U.S. and the remaining one was received from Germany (outside of LEAP). As of 31 Mar. 2009, there were […] of exposure to ambrisentan. All reports were actively followed up in accordance with Gilead Drug Safety procedures to obtain all important information needed to assess a potential relationship with ambrisentan therapy, particularly laboratory data, medical history and concurrent medications. All reports included potential alternative causes for the hepatic events which are unrelated to ambrisentan therapy, such as right-sided heart failure due to underlying PAH, other co-morbidities or concurrent medications.
Of the 120 spontaneous reports, 55 reports were medically-confirmed suspected adverse reaction reports. A total of 28 cases were considered “clinically significant hepatic events” which are defined as (1) ALT and/or AST increases >3×ULN, (2) serum total bilirubin increases >2×ULN, (3) any hepatic event associated with potential signs/symptoms of hepatic disease, or (4) any clinically significant hepatic event term (e.g., liver failure). These cases included 24 reports of serum aminotransferase (ALT/AST) increases >3×ULN; 3 reports of elevated serum total bilirubin>2×ULN; and 1 report of elevated serum aminotransferases with signs and symptoms, but AST and ALT values were not provided. Of these 28 cases, there were 3 reports of both elevated ALT/AST>3×ULN and serum total bilirubin>2×ULN. However, these reports included probable alternate causes of the hepatic events such as sickle cell disease in a patient with baseline serum total bilirubin of ‘7.7’, suspected gall bladder disease in a patient who developed increased serum total bilirubin (5×ULN) and alkaline phosphatase (3.3×ULN) 11 days before an increase in ALT to 3.1×ULN, and documented cardiogenic shock and right-sided heart failure due to PAH.
There were 7 drug-related serious adverse event (SAE) reports from clinical studies which had evidence of alternative causes of the hepatic events or were poorly documented. Six of the reports were considered clinically significant, including one case where ALT/AST was >3×ULN and serum total bilirubin>2×ULN. However, probable causes of the hepatic events in this case included concurrent right heart failure, diagnosed after the patient admitted missing several doses of ambrisentan and 3-4 days of sildenafil and furosemide and with a baseline serum total bilirubin of 1.7×ULN.
The estimated post-marketing incidence rate of hepatic events with ambrisentan in the U.S. during the 2-year post-marketing period is 1.8% (119/6622), detected through LEAP. This rate is consistent with the background rate of placebo-treated PAH patients in clinical trials evaluating ERAs which appeared to have an incidence rate of 2%-3% over a 12- to 24-week period.

Data set [3] is described as follows: Ambrisentan in subjects who discontinued bosentan/sitaxsentan due to aminotransferase elevations (AMB-222, AMB-323). The format is in vivo, human. The following applies: prior ERA discontinued for aminotransferase >3×ULN. From the text:
They were enrolled in studies AMB-222 (n=36) and AMB-323 (n=27). […] The remaining subjects in these studies (a total of 4 subjects) did have an aminotransferase level>3×ULN and are included in Table 1.

A further data set has as its target T1, ETA receptor (Homo sapiens, UniProt P25101).
T1 sequence (P25101 21-427): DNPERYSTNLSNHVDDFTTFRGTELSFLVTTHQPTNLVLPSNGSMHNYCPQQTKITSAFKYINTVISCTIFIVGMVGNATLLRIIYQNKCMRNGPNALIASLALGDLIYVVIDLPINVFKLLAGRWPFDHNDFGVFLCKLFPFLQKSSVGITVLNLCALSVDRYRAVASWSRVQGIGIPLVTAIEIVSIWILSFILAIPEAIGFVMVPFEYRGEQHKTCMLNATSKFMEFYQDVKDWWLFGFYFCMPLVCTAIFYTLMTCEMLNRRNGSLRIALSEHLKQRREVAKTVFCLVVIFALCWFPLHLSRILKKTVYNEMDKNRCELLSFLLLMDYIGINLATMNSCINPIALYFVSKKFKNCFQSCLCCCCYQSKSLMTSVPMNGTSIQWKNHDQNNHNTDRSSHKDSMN
To be noted: read-out: affinity for the ETA receptor; cited from earlier work.

[4] abbreviates: ARIES-2, 5 mg (N = 64), 12 weeks.
[5] abbreviates: ARIES-2, ambrisentan N = 127, 12-week treatment, intention-to-treat.
Setting [6] is: among the 28 clinically significant cases.

The text below walks through data of US20140275094A1, “METHOD FOR TREATING PULMONARY ARTERIAL HYPERTENSION IN A PATIENT NOT HAVING IDIOPATHIC PULMONARY FIBROSIS” (GILEAD SCIENCES, INC., priority 2012, published 2014).

SMILES strings stand for the structures.

`COC(c1ccccc1)(c1ccccc1)[C@H](Oc1nc(C)cc(C)n1)C(=O)O` [Ambrisentan, (25)-2-[(4,6-dimethylpyrimidin-2-yl)oxy]-3-methoxy-3,3-diphenylpropanoic acid]: in data set [1] (setting [4]), the “Placebo-adjusted mean change from baseline in 6-minute walk distance” value was 32 meters and the “Placebo-adjusted median change from baseline in 6-minute walk distance” value was 30 meters. Also, the “Mean change from baseline in 6-minute walk distance” value in data set [1] (ARIES-2, 5 mg (N = 64), 12 weeks, mean ± SD) is 22 ± 83 meters. In data set [1] (setting [5]), the “Clinical worsening, %” value worked out at 6% and the “Clinical worsening, no.” value was determined as 8. Besides, the “Time to clinical worsening, hazard ratio” value in data set [1] (ARIES-2, versus placebo) stood at 0.30. In addition, the “post-marketing spontaneous reports of hepatic events, number” value in data set [2] (15 Jun. 2007 through 14 Jun. 2009) amounted to 120. Further, the “estimated post-marketing incidence rate of hepatic events” value in data set [2] (U.S., 2-year post-marketing period, LEAP (119/6622)) is given as 1.8%. Moreover, in data set [2] (setting [6]), the “reports of both elevated ALT/AST >3×ULN and serum total bilirubin >2×ULN, number” value stood at 3; the “reports of elevated serum total bilirubin >2×ULN, number” value turned out to be 3; the “reports of serum aminotransferase (ALT/AST) increases >3×ULN, number” value is listed as 24. For the same compound, the “drug-related serious adverse event (SAE) reports from clinical studies, number” value in data set [2] (hepatic events) is given as 7. Further, the “cases considered clinically significant hepatic events, number” value in data set [2] (of 55 medically-confirmed suspected adverse reaction reports) turned out to be 28. For the same compound, the “incidence of hepatic events (adverse events and elevated aminotransferase levels)” value in data set [2] (post-marketing data) is “approximately 2%”. Also, in data set [3] (AMB-222 (n=36)), the “subjects who did not experience aminotransferase elevations while receiving ambrisentan” value is reported as 97%. Also, the “subjects who did not experience aminotransferase elevations while receiving ambrisentan” value in data set [3] (AMB-323 (n=27)) was 89%. Also, the Ki on ETA receptor was around 0.012 nM.
